Experimental data from patent US7341850B2, “Human LXRα variants” (Wyeth, priority 2003, dated 2008).

B1: LXRα-64: human LXRα splice variant with an extra 64 amino acids in its ligand binding domain (SEQ ID NO:4) (protein, listed as Homo sapiens)
chain: MSLWLGAPVPDIPPDSAVELWKPGAQDASSQAQGGSSCILREEARMPHSAGGTAGVGLEAAEPTALLTRAEPPSEPTEIRPQKRKKGPAPKMLGNELCSVCGDKASGFHYNVLSCEGCKGFFRRSVIKGAHYICHSGGHCPMDTYMRRKCQECRLRKCRQAGMREECVLSEEQIRLKKLKRQEEEQAHATSLPPRRSSPPQILPQLSPEQLGMIEKLVAAQQQCNRRSFSDRLRVTPWPMAPDPHSREARQQRFAHFTELAIVSVQEIVDFAKQLPGFLQLSREDQIALLKTSAIEVAGEGQGMKGEAEWDYLWEGPPDIELGEPNLLGSRDEENRPPWKRPCSKTSPPSPRLRFAACVQVMLLETSRRYNPGSESITFLKDFSYNREDFAKAGLQVEFINPIFEFSRAMNELQLNDAEFALLIAISIFSADRPNVQDQLQVERLQHTYVEALHAYVSIHHPHDRLMFPRMLMKLVSLRTLSSVHSEQVFALRLQDKKLPPLLSEIWDVHE

How the values were obtained:
[1] = tested on: LXRα-42 mRNA; assay: Regulation of LXRα-42 mRNA expression in differentiated THP-1 cells (real-time RT-PCR); type: cell-based, human; settings: THP-1 cells differentiated with 150 nM phorbol ester for 3 days; 10 μM T0901317, 10 μM GW 3965, 10 μM Ciglitazone or 1 μM 9RA; vs vehicle; FIG. 8B
Experimental: Each amplification mixture (50 μL) contained 50 ng of cDNA, 400 nM forward primer (SEQ ID NO:11), 400 nM reverse primer (SEQ ID NO:12), 200 nM dual-labeled fluorogenic probe (SEQ ID NO:13) (Applied Biosystems), 5.5 mM MgCl2, and 1.25 units Gold Taq (Applied Biosystems). The primers amplify a portion of the LXRα sequences that is about 80 nucleotides in length. The PCR thermocycling parameters were 95° C. for 10 minutes, and 40 cycles at 95° C. for 15 seconds, and 60° C. for 1 minute. Together with the samples and no-template controls, a serially diluted cDNA standard was analyzed in parallel. All samples were analyzed for human glyceraldehyde-3-phosphate dehydrogenase (GAPDH) expression in parallel in the same run using probe and primers from predeveloped assays for GAPDH (Applied Biosystems). All of the target gene expression was normalized to the expression of GAPDH. Quantitative analysis was performed using the threshold procedure, following the manufacturer's protocol (Perkin-Elmer), and relative amounts were calculated from the standard curve.
Experiments were performed to determine whether agonists of wild type LXRα could also regulate the expression of LXRα variants. In these experiments, THP-1 cells were obtained from the American Type Culture Collection (ATCC) and cultured in RPMI medium containing 10% fetal bovine serum (FBS). For gene expression analysis in differentiated THP-1 cells, the THP1 cells were incubated in RPMI medium supplemented with 10% lipoprotein-deficient serum (LPDS) (Intracel Corp, Rockville, Md.) and treated with 150 nM phorbol ester for 3 days followed by treatment with LXR, RXR, or Peroxisome Proliferator-activated Receptor γ (PPARγ) agonist compounds, specifically with vehicle only (control), 10 μM T0901317, 10 μM GW 3965, 10 μM Ciglitazone, or 1 μM 9RA. The primers and TaqMan probe for the real-time RT-PCR was described as in Example 4.

[2] = tested on: LXRα-64 mRNA; assay: Regulation of LXRα-64 mRNA expression in differentiated THP-1 cells (real-time RT-PCR); type: cell-based, human; settings: THP-1 cells differentiated with 150 nM phorbol ester for 3 days; 10 μM T0901317, 10 μM GW 3965, 10 μM Ciglitazone or 1 μM 9RA; vs vehicle; FIG. 8A
Experimental: Experiments were performed to determine whether agonists of wild type LXRα could also regulate the expression of LXRα variants. In these experiments, THP-1 cells were obtained from the American Type Culture Collection (ATCC) and cultured in RPMI medium containing 10% fetal bovine serum (FBS). For gene expression analysis in differentiated THP-1 cells, the THP1 cells were incubated in RPMI medium supplemented with 10% lipoprotein-deficient serum (LPDS) (Intracel Corp, Rockville, Md.) and treated with 150 nM phorbol ester for 3 days followed by treatment with LXR, RXR, or Peroxisome Proliferator-activated Receptor γ (PPARγ) agonist compounds, specifically with vehicle only (control), 10 μM T0901317, 10 μM GW 3965, 10 μM Ciglitazone, or 1 μM 9RA.

[3] = tested on: pGL3-LXRα-Luc reporter (LXR response element of LXRα promoter); assay: LXRα promoter (LXRE) luciferase reporter gene assay in transfected HEK 293 cells; type: cell-based, human; settings: variant co-transfected with hRXRα and reporter, 10 μM T0901317, 24 hours, compared with co-transfected native LXRα, FIG. 9
Excerpt: Human LXRα promoter (SEQ ID NO:14) was amplified by PCR using information from the published LXRα genomic structure and sequence (GenBank accession no. AC090589. A fragment spanning from -2660 to -2363 (relative to the transcription start site from exon 1) of LXRα promoter which contains the LXR response element ([NT] ID NO:20) ([…] et al. 2001, Mol. Cell. Biol. 21, 7558-7568 and Whitney et al., 2001, J. Biol. Chem. 276, 43509-43515) of LXRα was subcloned into pGL3 basic plasmid to create pGL-3-LXRα-Luc. The GenBank accession number of the LXRα “native” sequence used as a reference for the experiments and analysis disclosed herein is Genbank accession number for human LXRα is BC008819. Coding regions of human LXRα, and RXRα (GenBank accession number BC007925) were amplified by RT-PCR according to the sequences in GenBank and subcloned into pCMV/myc/nuc expression vectors (Invitrogen, Carlsbad, Calif.). The new LXRα-[…] coding region was subcloned into pCMV/myc/nuc expression vectors. HEK 293 cells were grown in Dulbecco's modified Eagle's medium (DMEM) containing 10% FBS. Transfections were performed in triplicate in 24 well plates using Lipofectamine 2000 (Invitrogen). […] The cells were harvested, analyzed, and the extracts were assayed for luciferase and β-galactosidase activity in a microplate luminometer/photometer reader (Lucy-1; Anthos, Salzburg, Austria). […]

[4] = tested on: ABCA1; assay: ABCA1 expression in transfected HEK 293 cells (real-time quantitative PCR); type: cell-based, human; settings: cotransfected with RXRα, FIG. 12
Experimental: (§1) In these experiments, coding regions of human LXRα, RXRα, and the LXRα variant (LXRα-64) were amplified by RT-PCR. The PCR products were subcloned into pCMV/myc/nuc expression vectors (Invitrogen, Carlsbad, Calif.) and used in the experiments described infra.
(§2) Expression experiments were conducted in HEK 293 cells that were propagated in Dulbecco's modified Eagle's medium (DMEM) containing 10% FBS. The cultured cells were transfected with either the expression vector containing a sequence encoding LXRα (wild type) or an expression vector encoding LXRα-64. All samples were co-transfected with an expression vector encoding an RXRα sequence. Transfections were performed in triplicate in 24 well plates using the Lipofectamine 2000 (Invitrogen, Carlsbad, Calif.). Each well was transfected with 200 ng of the LXRα expression vector (LXRα), the LXRα-64 expression vector (L64), or control plasmid (pCMV) along with 200 ng of human RXRα expression vector (RXRα). Additions to each well were adjusted to contain constant amounts of DNA and of pCMV expression vector. […] The levels of gene expression were determined with Real-time quantitative PCR assays using an Applied Biosystems 7700 sequence detector.

[5] = tested on: SREBP-c1 (an LXR target gene); assay: SREBP-1C expression in transfected HEK 293 cells (real-time quantitative PCR); type: cell-based; settings: cotransfected with human RXRα, TO901317 and/or 9RA, 48 hours, compared to wild type LXRα with RXRα or empty vector with RXRα, FIG. 11
Experimental: as §1, §2

Molecule	expression of LXRα-42 mRNA [1]	expression of LXRα-64 mRNA [2]	LXR ligand-dependent activation of reporter gene [3]	LXR as well as LXR+RXR-ligand dependent induction of ABCA1 expression ([4]; TO901317 and/or 9RA, 48 hours, compared to native LXRα and RXRα or empty vector with RXRα)	basal expression of ABCA1 ([4]; no ligand)	basal, LXR ligand-dependent, and LXR+RXR ligand-dependent induction of SREBP-c1 expression [5]
O=C(O)Cc1cccc(OCCCN(Cc2cccc(C(F)(F)F)c2Cl)CC(c2ccccc2)c2ccccc2)c1 [GW3965, 3-(3-(2-chloro-3-trifluoromethylbenzyl-2,2-diphenylethylamino)propoxy)phenylacetic acid]	increased	increased	–	–	–	–
O=S(=O)(c1ccccc1)N(CC(F)(F)F)c1ccc(C(O)(C(F)(F)F)C(F)(F)F)cc1 [T0901317, N-(2,2,2,-trifluoro-ethyl)-n-[4-(2,2,2,-trifluoro-1-hydroxy-1-trifluoromethyl-ethyl)-phenyl]-benzenesulfonamide]	increased	increased	–	–	–	–
CC1=C(/C=C/C(C)=C\C=C\C(C)=C\C(=O)O)C(C)(C)CCC1 [9-cis retinoic acid]	increased	increased	–	–	–	–
B1	–	–	sharply decreased	less	not affected	sharply decreased
